This note sets out measurements from patent US20230053688A1, “METHODS TO ALTER LATENCY IN EBV+ MALIGNANCIES” (Cornell University, priority 2020, published 2023).

Counter-ions that a name gives are not always drawn. Like-named read-outs stand apart in the source and are kept apart here.

In the experiment the test system is LMP1 expression in Kem I cells. Nature of the experiment: microbe, parasite or virus in culture. It is filed as cell-based, EBV. Conditions: for fold induction at 2.5 µM: human gammaherpesvirus 4, 48 h.
Setting [1] is: read-out: Average LMP1 Fold Increase, Kem I cells, 2.5 uM, 48 hours, average of replicates 1 and 2.
Where [2] appears, read: read-out: Replicate 1-LMP1 Fold Increase, Kem I cells, 2.5 uM, 48 hours, fold change in LMP1 transcript vs vehicle.
Where [3] appears, read: read-out: Replicate 2-LMP1 Fold Increase, Kem I cells, 2.5 uM, 48 hours, fold change in LMP1 transcript vs vehicle.
Where [4] appears, read: Kem I cells, 2.5 uM, 48 hours, average of replicates 1 and 2.
Where [5] appears, read: Kem I cells, 2.5 uM, 48 hours, fold change in LMP1 transcript vs vehicle.

For `C#CCC(Cc1cnc2nc(N)nc(N)c2n1)c1ccc(C(=O)N[C@@H](CCC(=O)O)C(=O)O)cc1` (stereo partly drawn) [Pralatrexate], the fold induction at 2.5 µM worked out at 3.49 under setting [1], 3.95 under setting [2] and 3.02 under setting [3].
Take `CCCN[C@H]1CCc2nc(N)sc2C1` [Pramipexole]: the fold induction at 2.5 µM is 0.93 under setting [1], 0.6 under setting [2] and 1.27 under setting [3].
`CCc1nc(N)nc(N)c1-c1ccc(Cl)cc1` [Pyrimethamine]: the fold induction at 2.5 µM turned out to be 0.8 under setting [1], 0.7 under setting [2] and 0.9 under setting [3].
In the case of `CC(C)(C)c1cc(NC(=O)Nc2ccc(-c3cn4c(n3)sc3cc(OCCN5CCOCC5)ccc34)cc2)no1` [Quizartinib (AC220)], under setting [4], the “Average LMP1 Fold Increase” value stood at 0.93. In addition, under setting [5], the “Replicate 1-LMP1 Fold Increase” value is on record as 0.71 and the “Replicate 2-LMP1 Fold Increase” value amounted to 1.15.
With `O=C(NCc1cccc(O)c1)Nc1nc(-c2ccncc2)cs1` [RKI-1447], the “Average LMP1 Fold Increase” value under setting [4] turned out to be 0.54. Under setting [5], the “Replicate 1-LMP1 Fold Increase” value amounted to 0.75 and the “Replicate 2-LMP1 Fold Increase” value is 0.33.
Take `Cc1nnc(C(=O)NC(C)(C)c2nc(C(=O)NCc3ccc(F)cc3)c(O)c(=O)n2C)o1` [Raltegravir (MK-0518)]: the “Average LMP1 Fold Increase” value under setting [4] was 1.31. Besides, under setting [5], the “Replicate 1-LMP1 Fold Increase” value stood at 0.59 and the “Replicate 2-LMP1 Fold Increase” value was 2.02.
On to `CCC(=O)NCC[C@@H]1CCc2ccc3c(c21)CCO3` [Ramelteon], for which the fold induction at 2.5 µM under setting [1] turned out to be 0.33, the fold induction at 2.5 µM under setting [2] turned out to be 0.45 and the fold induction at 2.5 µM under setting [3] came out at 0.22.
For `CNC(=C[N+](=O)[O-])NCCSCc1ccc(CN(C)C)o1` [Ranitidine], the fold induction at 2.5 µM is, setting by setting: under setting [1], 1.04; under setting [2], 0.9; under setting [3], 1.18.
The corresponding values for `C#CCN[C@@H]1CCc2ccccc21` [Rasagiline Mesylate] are 0.69, 0.86 and 0.51.
For `O=C(NC(Cc1cc(=O)[nH]c2ccccc12)C(=O)O)c1ccc(Cl)cc1` (stereo not drawn) [Rebamipide], the fold induction at 2.5 µM runs as follows: under setting [1], 0.85; under setting [2], 0.48; under setting [3], 1.23.
In the case of `Cc1cccc(-c2[nH]ncc2-c2ccc3ncccc3n2)n1` [RepSox], the “Average LMP1 Fold Increase” value was found to be 0.64, the “Replicate 1-LMP1 Fold Increase” value was 0.96 and the “Replicate 2-LMP1 Fold Increase” value was 0.33.
Take `CO[C@H]1C[C@@H]2CC[C@@H](C)[C@@](O)(O2)C(=O)C(=O)N2CCCC[C@H]2C(=O)O[C@H]([C@H](C)C[C@@H]2CC[C@@H](OP(C)(C)=O)[C@H](OC)C2)CC(=O)[C@H](C)/C=C(\C)[C@@H](O)[C@@H](OC)C(=O)[C@H](C)C[C@H](C)/C=C/C=C/C=C/1C` [Ridaforolimus (Deforolimus, MK-8669)]: the “Average LMP1 Fold Increase” value under setting [4] is reported as 3.37. Under setting [5], the “Replicate 1-LMP1 Fold Increase” value was found to be 6.08 and the “Replicate 2-LMP1 Fold Increase” value is given as 0.67.
`COc1cc(OC)c(/C=C/S(=O)(=O)Cc2ccc(OC)c(NCC(=O)O)c2)c(OC)c1` [Rigosertib (ON-01910)]: under setting [4], the “Average LMP1 Fold Increase” value was 0.57. Further, under setting [5], the “Replicate 1-LMP1 Fold Increase” value came to 0.69 and the “Replicate 2-LMP1 Fold Increase” value is reported as 0.46.
As for `Cc1c(C(=O)NN2CCCCC2)nn(-c2ccc(Cl)cc2Cl)c1-c1ccc(Cl)cc1` [Rimonabant], the fold induction at 2.5 µM was 0.39 under setting [1], 0.24 under setting [2] and 0.54 under setting [3].
As to `O=C(NC[C@H]1CN(c2ccc(N3CCOCC3=O)cc2)C(=O)O1)c1ccc(Cl)s1` [Rivaroxaban], the fold induction at 2.5 µM under setting [1] came out at 0.14, the fold induction at 2.5 µM under setting [2] was 0.08 and the fold induction at 2.5 µM under setting [3] is 0.2.
As for `CN(C)CCc1c[nH]c2ccc(Cn3cncn3)cc12` [Rizatriptan Benzoate], the fold induction at 2.5 µM was found to be 0.15 under setting [1], 0.1 under setting [2] and 0.2 under setting [3].
In the same order, the values of `COc1ccc(C2CNC(=O)C2)cc1OC1CCCC1` (stereo not drawn) [Rolipram] are 0.94, 1.13 and 0.75.
Turning to `COc1cc2c(cc1OC)[C@@H]1Cc3ccc(OC)c(OC)c3CN1CC2` [Rotundine], the fold induction at 2.5 µM was determined as 0.28 under setting [1], 0.3 under setting [2] and 0.27 under setting [3].
The corresponding values for `CC(=O)OCC(=O)NCCCOc1cccc(CN2CCCCC2)c1` [Roxatidine Acetate HCl] are 0.2, 0.15 and 0.24.
With `N#CC[C@H](C1CCCC1)n1cc(-c2ncnc3[nH]ccc23)cn1` [Ruxolitinib (INCB018424)], the “Average LMP1 Fold Increase” value under setting [4] turned out to be 0.41. Under setting [5], the “Replicate 1-LMP1 Fold Increase” value came to 0.48 and the “Replicate 2-LMP1 Fold Increase” value is recorded as 0.34.
As to `Cc1nn(-c2ccccc2)c(C)c1/C=N/N1CCN(Cc2ccccc2)CC1` [SANT-1], under setting [4], the “Average LMP1 Fold Increase” value came out at 0.64. In addition, under setting [5], the “Replicate 1-LMP1 Fold Increase” value stood at 0.31 and the “Replicate 2-LMP1 Fold Increase” value is 0.97.
As for `CCn1c(N)c(C(=O)NC)c(=O)c2ccc(C#C[C@@](C)(O)COC)nc21` [SAR131675], the “Average LMP1 Fold Increase” value under setting [4] came out at 0.40. In addition, under setting [5], the “Replicate 1-LMP1 Fold Increase” value came out at 0.30 and the “Replicate 2-LMP1 Fold Increase” value is listed as 0.49.
`C[S+]([O-])c1ccc(-c2nc(-c3ccc(F)cc3)c(-c3ccncc3)[nH]2)cc1` (stereo not drawn) [SB203580]: under setting [4], the “Average LMP1 Fold Increase” value is 0.57. In addition, under setting [5], the “Replicate 1-LMP1 Fold Increase” value amounted to 0.54 and the “Replicate 2-LMP1 Fold Increase” value was 0.59.
In the same order, the values of `Cc1cc(NC(=O)Nc2ccc(N(C)C)cc2)c2cc(F)cc(F)c2n1` [SB408124] are 0.67, 0.81 and 0.53.
As for `O=C1NC(=O)C(c2ccccc2[N+](=O)[O-])=C1Nc1ccc(O)c(Cl)c1` [SB415286], the “Average LMP1 Fold Increase” value under setting [4] is listed as 0.71. Moreover, under setting [5], the “Replicate 1-LMP1 Fold Increase” value was found to be 0.59 and the “Replicate 2-LMP1 Fold Increase” value was 0.84.
The corresponding values for `NC(=O)c1ccc(-c2nc(-c3ccccn3)c(-c3ccc4c(c3)OCO4)[nH]2)cc1` [SB431542] are 0.71, 0.82 and 0.61.
The corresponding values for `O=C(Nc1ccccc1Br)N[C@@H]1CCN(c2ccc(C(F)(F)F)cn2)C1` [SB705498] are 0.43, 0.38 and 0.48.
On to `O=S(=O)(c1ccccc1)c1cnc2c(N3CCNCC3)cccc2c1` [SB742457], for which, under setting [4], the “Average LMP1 Fold Increase” value is 0.82. Further, under setting [5], the “Replicate 1-LMP1 Fold Increase” value came to 1.09 and the “Replicate 2-LMP1 Fold Increase” value is on record as 0.55.
As to `Cc1ccc(C(=O)N(CCCN)[C@@H](c2oc3cc(Cl)ccc3c(=O)c2Cc2ccccc2)C(C)C)cc1` [SB743921], the “Average LMP1 Fold Increase” value under setting [4] is 1.76. Moreover, under setting [5], the “Replicate 1-LMP1 Fold Increase” value is listed as 1.10 and the “Replicate 2-LMP1 Fold Increase” value was found to be 2.41.
In the same order, the values of `O=C(NNc1nc2cc(F)ccc2n2cccc12)c1cnccn1` [SC144] are 1.51, 1.00 and 2.02.
As to `CC(C)N(CCCNC(=O)Nc1ccc(C(C)(C)C)cc1)C[C@H]1O[C@@H](n2cc(Br)c3c(N)ncnc32)[C@H](O)[C@@H]1O` [SGC 0946], the fold induction at 2.5 µM under setting [1] was found to be 0.29, the fold induction at 2.5 µM under setting [2] was found to be 0.26 and the fold induction at 2.5 µM under setting [3] is 0.31.
As for `Cc1cc(Nc2ccc(NC(=O)c3ccc(Nc4ccnc5ccccc45)cc3)cc2)nc(N)n1` [SGI-1027], the “Average LMP1 Fold Increase” value under setting [4] worked out at 53.53. In addition, under setting [5], the “Replicate 1-LMP1 Fold Increase” value is on record as 13.12 and the “Replicate 2-LMP1 Fold Increase” value amounted to 93.95.
Turning to `CN1CCC(CNc2ccc3ncc(-c4cccc(OC(F)(F)F)c4)n3n2)CC1` [SGI-1776 free base], under setting [4], the “Average LMP1 Fold Increase” value worked out at 1.26. For the same compound, under setting [5], the “Replicate 1-LMP1 Fold Increase” value was 1.94 and the “Replicate 2-LMP1 Fold Increase” value is given as 0.57.
Regarding `Oc1ccc(Nc2nc(-c3ccc(Cl)cc3)cs2)cc1` [SKI II], the “Average LMP1 Fold Increase” value under setting [4] stood at 1.00. For the same compound, under setting [5], the “Replicate 1-LMP1 Fold Increase” value is 0.96 and the “Replicate 2-LMP1 Fold Increase” value turned out to be 1.03.
For `O=C1NC(=O)/C(=C/c2cccc(C(F)(F)F)c2)S1` [SMI-4a], the “Average LMP1 Fold Increase” value under setting [4] is 0.41. Under setting [5], the “Replicate 1-LMP1 Fold Increase” value came to 0.29 and the “Replicate 2-LMP1 Fold Increase” value stood at 0.53.
For `CC(C)(C)c1cnc(CSc2cnc(NC(=O)C3CCNCC3)s2)o1` [SNS-032 (BMS-387032)], under setting [4], the “Average LMP1 Fold Increase” value was found to be 23.97. Under setting [5], the “Replicate 1-LMP1 Fold Increase” value is listed as 23.56 and the “Replicate 2-LMP1 Fold Increase” value came out at 24.39.
Turning to `Oc1c2ccccc2c2c3c(cccc13)N=N2` [SP600125], the fold induction at 2.5 µM is 0.6 under setting [1], 0.67 under setting [2] and 0.53 under setting [3].
As to `O=C(Nc1cc(C(F)(F)F)ccc1N1CCCCC1)c1ccncc1` [SRPIN340], under setting [4], the “Average LMP1 Fold Increase” value was found to be 0.84. For the same compound, under setting [5], the “Replicate 1-LMP1 Fold Increase” value worked out at 1.24 and the “Replicate 2-LMP1 Fold Increase” value was determined as 0.44.
In the case of `O=C(Nc1ccccc1-c1cn2c(CN3CCNCC3)csc2n1)c1cnc2ccccc2n1` [SRT1720], the “Average LMP1 Fold Increase” value under setting [4] is given as 0.64. Under setting [5], the “Replicate 1-LMP1 Fold Increase” value is reported as 0.58 and the “Replicate 2-LMP1 Fold Increase” value is given as 0.70.
For the compound `COc1c(C)c(C(=O)c2ccc(N)c(C(=O)[O-])c2)n2ccccc12.[Na+]` [SSR128129E], the “Average LMP1 Fold Increase” value under setting [4] came to 0.44. For the same compound, under setting [5], the “Replicate 1-LMP1 Fold Increase” value came out at 0.36 and the “Replicate 2-LMP1 Fold Increase” value turned out to be 0.52.
